Test results published in US6472526B1, “Imidazole derivatives having an inhibitory activity for farnesyl transferase and process for preparation thereof” (LG Chemical Ltd., priority 1997, dated 2002).

Assays:
Ras farnesyl transferase [1] = target: T1, Ras farnesyl transferase (Homo sapiens, UniProt P49354+P49356); assay: In vitro inhibitory activity for Ras farnesyl transferase, H-Ras substrate; format: biochemical; details: recombinant farnesyl transferase 4.5 nM, Ras substrate protein 1.5 μM, tritium-farnesylpyrophosphate 0.15 μM, 30 minutes at 37° C.; read-out: H-Ras IC50
T1 construct: made in house
Experimental: In the present experiment, Ras farnesyl transferase produced by genetic recombination techniques according to the improved Pompliano's method (Pompliano et al., Biochemistry, 1992, 31, 3800) was used, and Ras substrate (Ras-CVLS) protein described in Korean Patent Appln. No. 97-14409 was used after it has been purified according to the known method (see, Chung et al., Biochimica et Biophysica Acta, 1992, 278, 1129).
The enzyme reaction was performed in 50 μl of 50 mM Sodium HEPES buffer solution containing 25 mM of potassium chloride, 25 mM of magnesium chloride, 10 mM of DTT and 50 μM of zinc chloride. 1.5 μM of Ras substrate protein, 0.15 μM of tritium-farnesylpyrophosphate and 4.5 nM of farnesyl transferase were used.
More specifically, in the initial step, farnesyl transferase was added to the above buffer solution, reaction was maintained for 30 minutes at 37° C. and then the reaction was stopped by adding 1 ml of ethanol solution containing 1M HCl. The formed precipitates were adsorbed to GF/B filter using Hopper harvestor(Hopper #FH 225V) for filter-binding, washed with ethanol, and then radioactivity of the dried filter was measured using LKB β counter. Enzyme titer was measured in the unsaturated state of substrate where the concentrations of Ras substrate protein and farnesyl transferase have quantitative relationship. The compound according to the present invention dissolved in dimethyl sulfoxide (DMSO) was added to the reaction solution in an amount of less than 5% of the total reaction solution, and then the enzyme inhibitory activity thereof was measured. The enzyme inhibitory activity was represented by percentage of the amount of farnesyl incorporated into the Ras substrate protein in the presence of the test compound to that in the absence of the test compound. IC50 of the test compound was defined as the concentration at which 50% of the enzyme activity was inhibited.

Ras farnesyl transferase [2] = target: T1, Ras farnesyl transferase; assay: In vitro inhibitory activity for Ras farnesyl transferase, K-Ras substrate; format: biochemical; details: in vitro farnesyl transferase assay, K-Ras; read-out: K-Ras IC50
Ras farnesyl transferase [3] = target: T2, Ras farnesyl transferase (Rattus norvegicus, UniProt Q02293+Q04631); assay: In vivo (cellular) inhibitory activity for Ras farnesyl transferase, Rat2 cell line which expresses C-Harvey-Ras protein; format: cell-based; details: Rat2 cell line expressing C-Harvey-Ras; concentration inhibiting 50% of farnesyl bonding of Ras protein; read-out: H-Ras CIC50
T2 construct: endogenous in cells; host or cells: Rat2 fibroblasts transformed with H-Ras or with an H-Ras/K-Ras C-terminus fusion
Experimental: (§1) In the present experiment, Rat2 cell line which expresses C-Harvey-Ras protein having transforming activity and Rat2 cell line (Korean patent application No. 97-14409) which is transformed with fused protein of H-Ras substituted with polybasic lysine domain at C-terminus of K-Ras were used. The experiment was performed by the modified Declue's method (Declue. J. E. et al., Cancer Research, 1991, 51, 712). Hereinafter, the experimental method will be described in more detail.
(§2) 3×10^5 cells of transformed Rat2 fibroblast cell line were sprayed on 60 mm cell cultivation dish and cultivated for 48 hours in a cell incubator at 37° C. and after 50% or more of density was reached, it was treated with the test compounds. The compound according to the present invention dissolved in dimethylsulfoxide (DMSO) was used. 1% concentration of dimethylsulfoxide was used in both control and test groups. After 4 hours from the treatment with the compound, methionine labeled with 150 μCi of radioactive isotope [^35S] per 1 ml of medium was added and after cultivating for 20 hours, the cells were, washed with physiological saline water. The cells were lysed using 1 ml of cold cell lysis buffer solution (50 mM of Sodium HEPES buffer solution containing 5mM of magnesium chloride, 1 mM of DTT, 1% NP 40, 1 mM of EDTA, 1 mM of PMSF, 2 μM of leupeptin, 2 μM of pepstatin A and 2 μM of antipain) and the supernatant wherein the cells were lysed was obtained by high-velocity centrifugation of 12,000 g×5 minutes. The amount of radioisotope in the supernatant was measured and standardized to obtain a quantitative result in immunoprecipitation reaction and then, Y13-259, a monoclonal antibody specifically binding to Ras protein (Furth, M. E. et al., J. Virol, 1982, 43, 294) was added and reacted for 15 hours at 4° C. Protein A(combined with goat anti-murine immunoglobulin antibody)-agarose suspension was added to the solution and reacted for 1 hour at 4° C. and then, to remove the unspecific binding product, immunoprecipitates were washed with a buffer solution (50 mM Tris chloride buffer solution containing 50 mM of sodium chloride, 0.5% of sodium dioxycolate, 0.5% of NP 40 and 0.1% of SDS). The precipitates were added to a buffer solution for electrophoresis and boiled and then, electrophoresis was performed using 13.5% of SDS polyacrylamide gel. After electrophoresis, the gel was fixed and dried. Then, the gel was exposed to X-ray film, developed printed. From the result of the experiment, intensities of band of in combined with or without farnesyl of Ras protein were measured, the concentration of the test compound inhibiting 50% of farnesyl bonding was defined as […], an in vivo Ras farnesyl transferase inhibitory activity.

Ras farnesyl transferase [4] = target: T2, Ras farnesyl transferase; assay: In vivo (cellular) inhibitory activity for Ras farnesyl transferase, Rat2 cell line transformed with fused protein of H-Ras substituted with polybasic lysine domain at C-terminus of K-Ras; format: cell-based; details: Rat2 cell line transformed with H-Ras fused with polybasic lysine domain of K-Ras C-terminus; concentration inhibiting 50% of farnesyl bonding; read-out: K-Ras CIC50
Experimental: as §1, §2

Compound	IC50 (Ras farnesyl transferase [1])	IC50 (Ras farnesyl transferase [2])	IC50 (Ras farnesyl transferase [3])	IC50 (Ras farnesyl transferase [4])
COCCN(C)C(=O)c1cn(Cc2cncn2Cc2ccc(Br)cc2)nc1-c1cccc2ccccc12 [Compound 154, 1-[1-(4-Bromobenzyl)-1H-imidazol-5-ylmethyl]-4-[N-(2-methoxyethyl)-N-methyl]-carbamoyl-3-(naphthalen-1-yl)-1H-pyrazole]	30 nM	200 nM	150 nM	
COCCN(C)C(=O)c1sc(Cc2cncn2CC2CCN(C(=O)OCc3ccccc3)CC2)nc1-c1cccc2ccccc12 [Compound 151]	4600 nM	> 50000 nM		> 50000 nM
O=C(c1nc(Cc2cncn2Cc2ccc(Cl)cc2)sc1-c1cccc2ccccc12)N1CCOCC1 [Compound 146, 2-[1-(4-Chlorobenzyl)-1H-imidazol-5-ylmethyl]-4-(morpholin-4-yl)carbonyl-5-(naphthalen-1-yl)thiazole]	90 nM	10000 nM		
O=C(c1sc(Cc2cncn2Cc2ccc(Cl)cc2)nc1-c1cccc2ccccc12)N1CCOCC1 [Compound 149, 2-[1-(4-Chlorobenzyl)-1H-imidazol-5-ylmethyl]-5-(morpholin-4-yl)carbonyl-4-(naphthalen-1-yl)thiazole]	5000 nM	> 50000 nM		> 50000 nM
COCCN(C)C(=O)c1cn(Cc2cncn2CCC(C)C)cc1-c1cccc2ccccc12 [Compound 120]				< 20000 nM
CCOCCCn1cncc1Cn1cc(C(=O)N(C)CCOC)c(-c2cccc3ccccc23)c1 [Compound 123, 1-[1-(3-Ethoxypropyl)-1H-imidazol-5-yl]methyl-3-[N-(2-methoxyethyl)-N-methyl]carbamoyl-4-(naphthalen-1-yl)-1H-pyrrole]				< 40000 nM
COCCN(C)C(=O)c1cn(Cc2cncn2CC2CCN(C(=O)OCc3ccccc3)CC2)nc1-c1cccc2ccccc12 [Compound 152, 1-[1-(1-Benzyloxycarbonyl-piperidin-4-ylmethyl)-1H-imidazol-5-ylmethyl]-4-[N-(2-methoxyethyl)-N-methyl]carbamoyl-3-(naphthalen-1-yl)-1H-pyrazole]	23 nM	70 nM	100 nM	
O=C(OCc1ccccc1)N1CCC(Cn2cncc2Cn2cc(C(=O)N3CCOCC3)c(-c3cccc4ccccc34)n2)CC1 [Compound 158, 1-[1-(1-Benzyloxycarbonyl-piperidin-4-ylmethyl)-1H-imidazol-5-ylmethyl]-4-(morpholin-4-yl)carbonyl-3-(naphthalen-1-yl)-1H-pyrazole]	250 nM	2000 nM		30000 nM
COC(=O)N1CCC(Cn2cncc2Cn2cc(C(=O)N3CCOCC3)c(-c3cccc4ccccc34)n2)CC1 [Compound 159]	300 nM	4000 nM	1200 nM	
COCCN(C)C(=O)c1cn(Cc2cncn2CCCOC(C)C)cc1-c1cccc2ccccc12 [Compound 124, 1-[1-(3-Isopropoxypropyl)-1H-imidazol-5-yl]methyl-3-[N-(2-methoxyethyl)-N-methyl]carbamoyl-4(naphthalen-1-yl)-1H-pyrrole]				< 20000 nM
1-(1-Decyl-1H-imidazol-5-yl)methyl-3-[N-(2-methoxyethyl)-N-methyl]carbamoyl-4-(naphthalen-1-yl-1H-pyrrole [Compound 119]				< 30000 nM
COCCN(C)C(=O)c1cn(Cc2cncn2Cc2ccc3c(c2)OCO3)cc1-c1cccc2ccccc12 [Compound 1, 3-[N-(2-Methoxyethyl)-N-methyl]carbamoyl-1-[1-(3,4-methylenedioxybenzyl)-1H-imidazol-5-ylmethyl]-4-(naphthalen-1-yl)-1H-pyrrole]	1.1 nM	3.5 nM	25 nM	
COCCN(C)C(=O)c1cn(Cc2cncn2CC2CCN(C(=O)OC)CC2)nc1-c1cccc2ccccc12 [Compound 153, 1-[1-(1-Methoxycarbonylpiperidin-4-ylmethyl)-1H-imidazole-5-ylmethyl]-4-[N-(2-methoxyethyl)-N-methyl]-carbamoyl-3-(naphthalen-1-yl)-1H-pyrazole]	30 nM	100 nM	150 nM	
Cn1cncc1Cn1cc(C(=O)N2CCOCC2)c(-c2cccc3ccccc23)n1 [Compound 163, 1-(1-Methyl-1H-imidazol-5-ylmethyl)-4-(morpholin-4-yl)carbonyl-3-(naphthalen-1-yl)-1H-pyrazole]	150 nM	10000 nM		> 50000 nM
COCCN(C)C(=O)c1cn(Cc2cncn2CCOC)cc1-c1cccc2ccccc12 [Compound 121, 1-[1-(2-Methoxyethyl)-1H-imidazol-5-yl]methyl-3-[N-(2-methoxyethyl)-N-methyl]carbamoyl-4-(naphthalen-1-yl)-1H-pyrrole]				< 40000 nM
O=C(c1cn(Cc2cncn2Cc2ccc(Br)cc2)cc1-c1cccc2ccccc12)N1CCOCC1 [Compound 112, 1-[1-(4-Bromobenzyl)-1H-imidazol-5-yl]methyl-3-(morpholin-4yl)carbonyl-4-(naphthalen-1-yl)-1H-pyrrole]	4 nM	6 nM	15 nM	
O=C(c1cn(Cc2cncn2Cc2ccc(Cl)cc2)nc1-c1cccc2ccccc12)N1CCOCC1 [Compound 161, 1-[1-(4-Chlorobenzyl)-1H-imidazol-5-ylmethyl]-4-(morpholin-4-yl)carbonyl-3-(naphthalen-1-yl)-1H-pyrazole]	200 nM	2000 nM		
N#Cc1ccc(Cn2cncc2Cn2cc(C(=O)N3CCOCC3)c(-c3cccc4ccccc34)n2)cc1 [Compound 162, 1-[1-(4-Cyanobenzyl)-1H-imidazol-5-ylmethyl]-4-(morpholin-4-yl)carbonyl-3-(naphthalen-1-yl)-1H-pyrazole]	250 nM	2000 nM		
CN1CCN(C(=O)c2cn(Cc3c[nH]cn3)cc2-c2cccc3ccccc23)CC1 [Compound 89]	14 nM	100 to 10000 nM		10000 to 100000 nM
COCCCn1cncc1Cn1cc(C(=O)N(C)CCOC)c(-c2cccc3ccccc23)c1 [Compound 122]				< 30000 nM
3-[N-(2-Methoxyethyl)-N-methyl]carbamoyl-4-(naphthalen-1-yl)-1-(1-octyl-1H-imidazol-5-yl)methyl-1H-pyrrole [Compound 118]				< 40000 nM
CCOC(=O)c1nc(Cc2cnc[nH]2)sc1-c1cccc2ccccc12 [Compound 144, 4-Ethoxycarbonyl-2-(1H-imidazol-5-ylmethyl)-5-(naphthalen-1-yl)thiazole]	380 nM			> 50000 nM
3-[N-(2-Methoxyethyl)N-methyl]carbamoyl-4-(naphthalen-1-yl)-1-(1-pentyl-1H-imidazol-5-yl)methyl-1H-pyrrole [Compound 117]				< 50000 nM
